The assay has as its target Glycogen synthase kinase-3 beta (Homo sapiens, UniProt P49841). As to the kind of experiment: Inhibition of human recombinant GSK3-beta.

The structures appear in SMILES notation.

Sequence of Glycogen synthase kinase-3 beta (P49841 whole entry): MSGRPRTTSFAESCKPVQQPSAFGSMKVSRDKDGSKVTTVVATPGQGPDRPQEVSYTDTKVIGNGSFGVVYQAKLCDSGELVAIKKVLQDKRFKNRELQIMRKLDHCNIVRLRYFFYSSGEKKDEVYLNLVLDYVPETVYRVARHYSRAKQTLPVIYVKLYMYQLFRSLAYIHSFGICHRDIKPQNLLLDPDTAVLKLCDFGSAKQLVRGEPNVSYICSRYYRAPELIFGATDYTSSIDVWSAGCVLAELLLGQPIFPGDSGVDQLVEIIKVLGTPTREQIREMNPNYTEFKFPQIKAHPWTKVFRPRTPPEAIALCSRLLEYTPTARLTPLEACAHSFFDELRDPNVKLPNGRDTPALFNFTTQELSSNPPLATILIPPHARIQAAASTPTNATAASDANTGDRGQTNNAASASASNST

What is called IC50 is the concentration that gives 50% inhibition. Regarding `CN(C)c1nc2ccc1CCCn1cc(c3ccccc31)C1=C(C(=O)NC1=O)c1cn(c3ccccc13)CCC2`, the IC50 was 37 nM.

Source of the values: ChEMBL document CHEMBL1139192, “Novel bis(indolyl)maleimide pyridinophanes that are potent, selective inhibitors of glycogen synthase kinase-3” (Bioorg Med Chem Lett, 2007).
